Patent US12109187B2, “Antimicrobial compositions and related methods” (priority 2020, dated 2024)
Entries after “also recorded” stand apart in the source; their conditions may differ.

Legend:
[1] = test system: F. tularensis live vaccine strain (LVS); experiment: microbe, parasite or virus in culture; format: cell-based, Francisella tularensis
F. tularensis LVS/pTC3D = format: cell-based, Francisella tularensis
TNFα = format: cell-based
MglA/SspA regulon = format: cell-based, Francisella tularensis LVS
Acinetobacter baumannii = test system: Acinetobacter baumannii; design: species or system Galleria mellonella; details: in vivo
A. baumannii = format: cell-based, Acinetobacter baumannii
IglA = format: cell-based, Francisella tularensis LVS
IglC = format: cell-based, Francisella tularensis LVS
LpnA = format: cell-based, Francisella tularensis LVS
F. tularensis LVS = format: cell-based, Francisella tularensis

**Q.** Which “intracellular replication of F. tularensis LVS in THP-1 monocytes (CFU)” value [1] does the source give for `C=CCc1cc2c(c(OC)c1OC)OCO2` [dillapiole] here?
**A.** Its value is “sufficient to inhibit replication of F. tularensis”.

**Q.** And the MIC ([1]; Francisella tularensis, read-out: minimum inhibitory concentration (MIC))?
**A.** Its MIC is < 7 µg/mL.

**Q.** What about the “replication of F. tularensis in RAW 264.7 mouse macrophages” value (F. tularensis LVS/pTC3D) of the same compound?
**A.** Its value is “sufficient to inhibit replication of F. tularensis”.

**Q.** And the TNFα production (TNFα)?
**A.** The TNFα production was “decreased TNFα production”.

**Q.** And the “expression of virulence factors / genes controlled by MglA/SspA (incl. FPI genes)” value (MglA/SspA regulon)?
**A.** The value was “decrease in expression of several key virulence factors; also recorded: significantly decreased expression following treatment with dillapiole”.

**Q.** What about the “rate of survival of infected wax worms” value (Acinetobacter baumannii) of the same compound?
**A.** Its value is “significantly higher rate of survival”.

**Q.** What about the “A. baumannii viability in rich growth media” value (A. baumannii) of the same compound?
**A.** Its value is “did not diminish A. baumannii viability”.

**Q.** What about the IglA protein expression (IglA) of the same compound?
**A.** Its IglA protein expression is “significant reduction”.

**Q.** And the IglC protein expression (IglC)?
**A.** The IglC protein expression was “significant reduction”.

**Q.** And the LpnA production (LpnA)?
**A.** Its LpnA production is “unaffected”.

**Q.** And the “bacterial growth as determined by optical density” value (F. tularensis LVS)?
**A.** Its value is “did not affect bacterial growth”.

**Q.** What about the “toxicity to mammalian cells” value (mammalian cells) of the same compound?
**A.** Its value is “not toxic to mammalian cells”.
